Test results taken from patent US20230391727A1, “ANALOGUES OF PENTAMIDINE AND METHODS FOR TREATING INFECTIONS” (Auransa Inc., priority 2020, published 2023).
≈ marks a conversion by molar mass, not a printed value. Where “and” joins values, the source holds several entries; their conditions need not be identical. Identical values can stand only once.

Assays:
[1] = system: K. pneumoniae; experiment: Checkerboard assay with rifampicin (FIG. 1); assay type: cell-based, Klebsiella pneumoniae
From the text: As control, pentamidine was used for its synergistic, indifferent or antagonistic interaction with rifampicin in similar conditions. […] In FIG. 1, dark wells indicated growth inhibition of K. pneumoniae and corresponding antibacterial activities of these compounds.

[2] = system: human primary hepatocytes; experiment: alamarBlue cell viability, cytotoxicity in hepatocytes; assay type: cell-based; conditions: 24 hours
Method: Compound 3 was tested for cytotoxicity in human primary hepatocytes in duplicate at 8 concentrations ranging from 0.03 μM to 100 μM (0.013 μg/ml to 44.95 μg/ml ).
This assay was performed using cryopreserved human primary hepatocytes (PHH). The cryopreserved PHH were seeded in collagen I coated 96-well plates in plating medium. The medium was replaced with incubation medium 2-4 hours after seeding. After overnight culture, test compound (compound 3) (0.03, 0.1, 0.3, 1, 3, 10, 30, 100 μM), reference compound (chlorpromazine) and vehicle control (1% DMSO) were added, and incubated with the cells for 24 hours followed by the addition of the alamarBlue cell viability reagent. The plates are analyzed for fluorescent intensity after alamarBlue addition. % of cell viability (% of control) was calculated by comparing the background (wells without cells) corrected fluorescent intensity in the compound treated wells and vehicle control treated wells. IC50 values were determined by non-linear regression analysis of the concentration-response curves using the Hill equation. Testing was done in duplicate.

[3] = system: S. aureus VRS-2; experiment: S. aureus VRS-2 peritonitis infection model; assay type: in vivo, female ICR mice
Method: The efficacy of compound 3 was evaluated in the S. aureus VRS-2 peritonitis infection model. The test article, compound 3 at 0.1, 0.3 and 1 mg/kg, was intraperitoneally (IP) administered twice at 2 and 16 h after infection; as well as once at 2 mg/kg at 2 h post-infection. The control reference agent, linezolid at 50 mg/kg, was orally (PO) administered once at 1 h post-infection. […] All animals in the vehicle group succumbed to infection between Day 1 to Day 2, resulting in 100% mortality, and a mean 15 h survival time. […] In the compound 3 at 1 mg/kg IP BID dose group, one out of eight animals survived till Day 7 of the study period, resulting in 13% survival rate, and a mean 33 h survival time.
For efficacy testing, the 0.4 mg/mL compound 3 solution was prepared by dissolving 1.21 mg of compound 3, corresponding to active ingredient of 1.02 mg with a correction factor of 1.19, in 2.55 mL of WFI. The 0.4 mg/mL compound 3 working solution was further diluted with WFI to generate three lower dosing solutions of 0.2, 0.06 and 0.02 mg/mL. All dosing solutions were soluble and colorless.
PDS supplied vancomycin and linezolid as reference controls for both MIC and in vivo studies. […] The 3.2 mg/mL linezolid 50× stock solution was prepared by dissolving 1.0 mg of linezolid in 0.313 mL of DMSO. Both solutions were colorless and soluble. For efficacy testing, one tablet of linezolid, at 600 mg, was dissolved in 12 mL of 1% Tween 80 in saline (0.9% NaCl) to generate a 50 mg/mL of stock solution. The 50 mg/mL linezolid stock solution was further diluted with 1% Tween 80 in 0.9% NaCl to generate the dosing solution of 5 mg/mL. Both solutions were insoluble with white color.
The S. aureus strain VRS-2 peritonitis infection model was performed with immunocompetent female ICR mice, weighing 22±2 g. All animals were specific pathogen free. The PDS standard protocol for preparing S. aureus cultures for mouse infection studies was followed. A 0.2 mL aliquot of a single-use glycerol stock (at −80° C.) was used to seed […] heart infusion (BHI) and then incubated at 35-37° C. with shaking (250 rpm) for 8 h. Bacterial cells in the 20 mL was pelleted by centrifugation (3,500×g) for 15 minutes, and then re-suspended in 10 mL cold phosphate buffer saline (PBS). The optical density, OD620 nm, was measured and used to guide dilution. The PBS suspensions were stored on ice for no more than 1 h prior to animal inoculation. The dilutions were performed by 1:1 dilution of BHI broth containing hog gastric mucin to obtain the target inoculum density, 1×10^8 CFU/mouse, per 0.5 mL with 5% mucin (final concentration). The actual colony count was determined by plating dilutions to nutrient agar (NA) plates followed by 20-24 h incubation at 35-37° C.
On Day 0, animals were infected with bacterial suspension with 5% mucin by intraperitoneal injection. The actual inoculum was 1.93×10^8 CFU/mouse with a target inoculum of 1×10^8 CFU/mouse in the peritonitis infection model. Test article, compound 3, was formulated in WFI and intraperitoneally (IP) administered with the dose schedule and concentrations indicated in the study design. Doses were administered once at 2 h post-infection or twice (BID) at 2 and 16 h post-infection. The animals were monitored for survival up to 7 days, twice daily (AM 9:00/PM 17:00). […]
Animals were monitored for mortality twice daily (AM 9:00/PM 17:00) for 7 days after infection. […]

[4] = system: S. aureus ATCC 27660; experiment: MIC assay against gram positive S. aureus; assay type: cell-based; conditions: Staphylococcus aureus, ATCC27660
Method: (§1) Then the compound stocks were serially 2-fold diluted in a v-bottom 96-well plate to make 100-fold working solutions. One day before the test, −80° C. glycerol stock of S. aureus strains were streaked on cation-adjusted Mueller-Hinton agar (CAMHA) plates. On the day of test, fresh bacterial colonies were suspended into sterile saline to an OD600 nm of ˜0.1 (equivalent to 0.5 McFarland). The bacterial suspension was firstly 20-fold followed by 50-fold diluted in cation-adjusted Mueller-Hinton broth (CAMHB) plates to 1×10^6 CFU/PO. 198 ul of the inoculum was added into the round-bottom 96-well plates prefilled with 2 ul of 100-fold compound working solutions. After incubating at 35 +/−2° C. in ambient atmosphere for 18-24 h, MIC was recorded as the lowest concentration under which no visible bacterial growth was observed.

[5] = system: S. aureus ATCC 43300; experiment: MIC assay against gram positive S. aureus; assay type: cell-based; conditions: Staphylococcus aureus, ATCC43300
Method: as §1

Which results are given for N=C(N)c1ccc(CC[C@H]2CCC[C@@H](CCc3ccc(C(=N)N)cc3)C2)cc1 [Compound 3, 4,4′-(2,2′-((1R,3S)-cyclohexane-1,3-diyl)bis(ethane-2,1-diyl))dibenzimidamide]?
synergistic effect with rifampicin, growth inhibition, compared to pentamidine [1]: superior synergistic effects with rifampicin than pentamidine with rifampicin; effect on cell viability ([2]; 10 μM (4.49 μg/ml) and lower concentrations): No inhibition on cell viability; effect on cell viability ([2]; 30 uM and 100 μM (13.48 μg/ml and 44.95 μg/ml)): significant effects on cell viability; IC50 ([2]; Hepatocyte, human primary hepatocytes): 25 µM and 11.2 µg/mL; mean survival time ([3]; 1 mg/kg IP BID (2 and 16 h after infection)): 33 h; survival rate ([3]; 1 mg/kg IP BID (2 and 16 h after infection), Day 7): 13%; mortality ([3]; 0.1 and 0.3 mg/kg IP BID, and single dose of 2 mg/kg): 100%; MIC [4]: 0.5 µg/mL (≈ 1.33 µM); MIC [5]: 0.5 µg/mL (≈ 1.33 µM)
